Assay results as given in patent US4753928A, “Process for obtaining sexual products from mammals suitable for natural or artificial fertilization” (INNOFINANCE Altalanos Innovacios Pengintezet, priority 1985, dated 1988).
Where a SMILES comes first, the peptide text is derived from it. [ ]: non-standard residue; d: D form. pGlu = O=C1CC[C@@H](C(=O)O)N1

Experiments:
bison bull = assay: Inducing spermiogenesis of bison bull in seasonal oligospermia; assay type: in vivo; settings: 55th day
Source text: From bison bull belonging to Zoo and weighing 700 kg, under narcosis and by electrical means a sperm sample was obtained and it was established that it was in a seasonal oligospermial state. Symptoms of this were the following: under microscope magnifying 1500 times and used in sperm evaluation the number of sperm found was 5-20 and defective sperms reached 75-80%. The density of the ejaculate was 0.5. Sperms of this quality are unsuitable for fertilization. Thereafter, twice weekly the animal was treated intramuscularly with 200-200 μg dose each of D-phe^6, Gln^8 -GnRH analogue, using the compressed air injection method. On the 55th day following commencement of treatment, under narcosis and with a time lapse of one hour the animal was ejaculated twice. The two ejaculates were combined; their density was 4, their motility 55%. The thus-obtained sperms were deep frozen, then the decrease of motility as a result of deep freezing was checked: this was only 5%.

[1] = system: ovary of infant domestic cat; assay: Stimulating function of ovary in infant domestic cat (D-Phe6,Gln8-GnRH); assay type: in vivo, Felis cattus domesticus; settings: 100 μg i.m. every second day, 4 times; 45 days old kittens
Procedure: 5 kittens each weighing 0.3 kg and being 45 days old were treated with D-Phe^6, Gln^8 -GnRH analogue every second day, altogether 4 times, using 100 μg each of the active ingredient. It was intramuscularly administered after dilution in normal saline solution. Following treatment, ovaries of both sides were removed from the animals under narcosis and visual examination took place. Thereafter the ovaries were fixed in formalin, and then hystological test was carried out. […] Under incrustation developing follicles were found, well definable from the bright, butter-coloured ovary. Some of the follicles were of Graf-follicle size.

red fox males = assay: Inducing spermiogenesis of red fox in seasonal oligospermia; assay type: in vivo, Vulpes vulpes
Source text: We have attempted to induce spermiogenesis of red fox males kept in Zoo and being in seasonal oligospermia with the aim that pure bred silver and blue foxes kept under farming scale conditions might be inseminated for the production of high-quality hybrid furs. […] Between unoestrus of the various sub-species is a difference of several months (red fox: January; blue fox: April and May). Results of the test were compared to population being in seasonal unoestrus where the average quantity of ejaculate was 2 ml, density 3 and motility 50-60%. This was taken as physiological value. During the test 5 sexually mature red fox males of 8 kg average weight were treated in the month of April, twice weekly with 1, 5, 10, and 50 μg doses of D-Phe^6, Gln^8 -GnRH analogue for seven weeks. On the third week following commencement of treatment sperm sample was taken. In the sample sperm count was 70% of the physiological value, and the number of degenerated sperm was over 40%. Most of the deformed forms were of young formation (plasma droplet of neck and middle part). […] (Males were separated from females, thus they had no opportunity to copulate.) Sperm samples were put into groups according to quality, then put into deep freeze. […] By ejaculating the 5 foxes once each, 56 doses of sperms suitable for fertilizing were obtained. In this way industrial technology service was provided for the production of quality furs.

infant female pigs = assay: Inducing super-ovulation in infant pigs; assay type: in vivo; settings: 10 μg twice daily 6 days i.m., 100 μg on 7th day, after 41 hours; 100-day old pigs
Procedure: 20 100-day old infant female pigs were treated for 6 days, twice daily, with 10 μg doses each consisting of D-Phe^6 -Gln^8 -GnRH analogue administered intramuscularly. In the test half side of the ovaries in the control animals was removed and, by using the test method detailed in Example 3, the number of the Graf-follicles and of corpora lutea formed was compared. Occurrence of ovulation was detected by laparoscopy. […] Treatment of these animals produced similar results as described in Examples 1 to 3.

female lion = assay type: in vivo
Procedure: In our process an intact, fertile female lion belonging to a Zoo was treated, a lioness of 200 kg body weight, which has given litter five times in its life already. Treatments took place twice in every 3 weeks, using D-[…], […] -GnRH analogue. Treatment was timed in such a way that a 50 μg dose was follwed by a 500 μg dose, than a 3-week pause followed. Treatment was carried out with the already mentioned three weeks interval from commencement of oestrus (month of April) until 50 days following end of oestrus typical of the species (August).

barren chinchillas = assay: Treatment of chinchilla barren for prolonged time; assay type: in vivo
Procedure: Twenty chinchillas barren for at least two years were treated twice daily for three days with 10 μg each of D-Phe^6, Gln^8 -GnRH analogue through intraperitoneal injection. On the 4th day the animals were injected with 75 μg of GnRH analogue, then they were put together with the male. 12 of the Chinchillas gave birth within 4 months. Parallel with the above treatment, 3 animals barren for more than 2 years having very valuable fur as "black" mutant chinchillas were treated twice daily for three days with 10 μg each of D-Phe^6, Gln^8 -GnRH analogue, administered through peritoneal injection. The animals were injected on the 4th day with 75 μg of GnRH analogue, then, as customary, were put together with the male.

female blue fox = assay: Treatment of female blue fox in seasonal unoestrus for inducing fertile oestrus; assay type: in vivo
Procedure: Female blue fox in seasonal unoestrus was examined in December under narcosis with the aid of laparoscopy. […] Then the animal had twice daily intramuscular treatment for ten days with a 1 to 5 μg dose of D-Phe^6, Gln^8 -GnRH analogue. On the tenth day another laparoscopy was carried out under narcosis. […] Also in December a rejected female due to mammalian atrophy was similarly treated twice a day with 2 μg each of D-Phe^6, Gln^8 -GnRH analogue the effect of which was followed by looking at changes in condition of the neck of uterus. On the 6th day following first treatment, the neck of uterus opened. At this time the treatment was carried out with 50 μg of active ingredient. 16 hours later conditions of the ovaries were examined with mirroring and a state immediately prior to ovulation was found. Then abdominal cavity was entirely opened, the ovaries were removed and by puncturing ova were removed from a total of 11 Graf-follicles. Six regular, normal ova covered with corona radiata were found.

CC(C)C[C@H](NC(=O)[C@@H](Cc1ccccc1)NC(=O)[C@H](Cc1ccc(O)cc1)NC(=O)[C@H](CO)NC(=O)[C@H](Cc1c[nH]c2ccccc12)NC(=O)[C@H](Cc1c[nH]cn1)NC(=O)[C@@H]1CCC(=O)N1)C(=O)N[C@@H](CCC(N)=O)C(=O)N1CCC[C@H]1C(=O)NCC(N)=O [D-Phe^6, Gln^8 -GnRH analogue, D-Phe^6, Gln^8 -GnRH] ([pGlu]HWSY[dF]LQPG-NH2)
decrease of motility as a result of deep freezing (bison bull): 5%
density of ejaculate (bison bull; 200 μg i.m. twice weekly, two ejaculates combined): 4
sperm motility (bison bull; two ejaculates combined): 55%
corpora haemorrhagica on ovaries of both sides [1]: 5-7
doses of sperms suitable for fertilizing obtained (red fox males; 5 foxes ejaculated once each): 56
density of ejaculate (red fox males; 7 weeks): 3
sperm motility (red fox males; 7 weeks, physiological value 50-60%): 65%
motility after remelting (red fox males; after dilution and deep freeze at -196° C.): 45%
degenerated sperm (red fox males; third week): over 40%
sperm count relative to the physiological value (red fox males; third week, twice weekly 1, 5, 10 and 50 μg doses): 70%
ovulations (infant female pigs): 15-36
pregnancy during treatment (contraception) (female lion; 50 μg followed by 500 μg, every 3 weeks, April to August, regular copulation): did not become pregnant
behaviour and appearance during treatment (female lion; in vivo): showed no irregularity either in its behaviour or in its appearance
black mutant chinchillas that gave birth within four months (barren chinchillas; 3 animals barren >2 years, same treatment): all three animals gave birth to young ones
chinchillas that gave birth within 4 months (barren chinchillas; of twenty barren ≥2 years, 10 μg twice daily 3 days i.p., 75 μg on 4th day): 12
regular, normal ova covered with corona radiata found (female blue fox; second female): Six
day on which the neck of uterus opened (female blue fox; second female, 2 μg twice a day): 6 days
Graf-follicles punctured (female blue fox; second female, 16 hours after 50 μg): 11
condition of neck of uterus (female blue fox; tenth day, same animal): the neck of uterus was open
